The source of these data is patent US7285703B2, “Plant like starches and the method of making them in hosts” (BASF Plant Science GmbH, priority 1998, dated 2007).

Holding throughout (format): biochemical
Test [1] has as its target T1, maize starch synthase SSI-1 (STSI-1), full length SSI (583 amino acids), N-terminus CVAELSREGP (SEQ ID NO:64) (Zea mays, UniProt O49064).
T1 sequence (O49064 with tags, fused parts or gaps): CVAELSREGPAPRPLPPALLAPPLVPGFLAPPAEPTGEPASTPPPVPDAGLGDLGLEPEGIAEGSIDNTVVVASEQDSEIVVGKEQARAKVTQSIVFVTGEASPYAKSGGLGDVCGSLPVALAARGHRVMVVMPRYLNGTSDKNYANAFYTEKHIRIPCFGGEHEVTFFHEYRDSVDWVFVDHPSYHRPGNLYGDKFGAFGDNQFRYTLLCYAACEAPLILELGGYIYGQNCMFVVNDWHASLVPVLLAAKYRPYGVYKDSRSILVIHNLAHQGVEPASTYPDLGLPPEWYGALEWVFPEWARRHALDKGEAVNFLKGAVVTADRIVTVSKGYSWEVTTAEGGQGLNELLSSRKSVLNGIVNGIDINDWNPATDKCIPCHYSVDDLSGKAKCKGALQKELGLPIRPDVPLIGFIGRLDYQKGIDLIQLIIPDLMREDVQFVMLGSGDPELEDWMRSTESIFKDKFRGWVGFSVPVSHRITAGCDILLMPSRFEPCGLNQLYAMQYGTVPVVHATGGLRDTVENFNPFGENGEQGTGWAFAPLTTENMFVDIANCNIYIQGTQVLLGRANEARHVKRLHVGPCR
The experiment in a line: ADPGlc kinetics of starch synthase SSI-1. The settings on record: 5 mg/ml amylopectin as primer, 37° C. An excerpt: FIG. 58. SSI-1, SSI-2, and SSI-3 construct design. Three forms of SSI were constructed in the pET expression (see Methods). pExs10a encodes SSI-1, the full length maize SSI (583 amino acids) which has the N-terminal sequence CVAELSREGP (SEQ ID NO:64). pExs8 encodes a truncated SSI, SSI-2, with amino acids # 8-52 deleted from the N-terminus of SSI-1 and which has the N-terminal sequence CVAELSR/DLG (SEQ ID NO:65). pExs1d encodes the most truncated form of SSI, SSI-3, with the first 93 amino acids deleted from SSI-1 and which has the N-terminal sequence SIVFVTGE (SEQ ID NO:66). A depiction of the waxygene, encoding GBSS, which has the N-terminal sequence ASAGMNW (SEQ ID NO:67), is also included for comparison. The amino acid motif KS/TGGL (SEQ ID NO:9), the putative binding site for ADGPGlc, in indicated by the triangles. The KS/TGGL (SEQ ID NO:9) motif is located 18 amino acids from the N-terminus in GBSS, while the motif is 106 amino acids from the N-terminus in maize SSI. Drawing not to scale.
5 mL of supernatant were used to assay STS and SBE activities as previously described (Preiss) with minor modification. […] The unincorporated [^14C]-ADPGlc was separated with Dowex anion exchange column (200-400 mesh, Sigma Chemical Co.). […] SBE activity was determined by phosphorylase stimulation assay. One unit of activity is defined as 1 mmol Glc incorporated into the a-glucan per min at. […]

Test [2] deals with maize starch synthase SSIIa-1, putative full length SSIIa (669 amino acids), N-terminus AEAEAGGK (SEQ ID NO:68) (Zea mays, UniProt A0A804PX87). Kind of test: ADPGlc kinetics of starch synthase SSIIa-1. To be noted: for Vmax (ADPGlc kinetics): amylopectin as primer, 27° C. An excerpt:
(§1) FIG. 59. SSIIa-1 and SSIIa-2 construct diagram. Two forms of SSIIa were constructed in the pET expression system. pExs3c encodes SSIIa-1, the putative full length maize SSIIa which has the N-terminal sequence AEAEAGGK (SEQ ID NO:68). […] A depiction of the waxy gene, encoding GBSS which has the N-terminal sequence ASAGMNVV (SEQ ID NO:67), is also included for comparison. The amino acid motif KTGGL (SEQ ID NO:10), the putative binding site for ADPGlc, is indicated by the triangles. The KTGGL (SEQ ID NO:10) motif is located 18 amino acids from the N-terminus in GBSS, while the motif is 194 amino acids from the N-terminus in maize SSIIa.
(§2) 5 mL of supernatant were used to assay STS and SBE activities as previously described (Preiss) with minor modification. […] […] The unincorporated [^14C]-ADPGlc was separated with Dowex anion exchange column (200-400 mesh, Sigma Chemical Co.). One unit of activity is defined as 1 nmol Glc incorporated into the a-glucan per min at 25° C. SBE activity was determined by phosphorylase stimulation assay. One unit of activity is defined as 1 mmol Glc incorporated into the a-glucan per min at. 30° C.
For the recombinant SS purification, the cell pellet was resuspended in sonication buffer (50 mM Tris-acetate, pH 7.5, 10 mM EDTA, and 5 mMDTT; 7 ml buffer per gram of cell mass), and cells were lysed using a Fisher 550 Sonic Dismembrator with 5×1 min. bursts with 30 sec. intervals. The homogenate was centrifuged at 9600 g for 30 minutes. SSI in the supernatant was then precipitated by slowly adding neutralized saturated ammonium sulfate to 40% saturation. After stirring on ice for an additional 50 minutes, proteins were collected by centrifugation at 12500 g for 45 minutes. The protein pellet was then redissolved in buffer A (50 mM Tris, pH 5.5, 1 mM EDTA, and 5 mM DTT) containing 0.1 M KCl and dialyzed against the same buffer, with one change of buffer. After dialysis, the sample was centrifuged at 13000 g for 20 minutes to remove insoluble materials. […]

The target of test [3] is maize starch synthase SSIIa-2, N-terminally truncated SSIIa, first 176 amino acids deleted (493 amino acids), N-terminus GENVMNVI (SEQ ID NO:1) (Zea mays, UniProt A0A804PX87). The experiment in a line: ADPGlc kinetics of starch synthase SSIIa-2. The settings on record: for Vmax (ADPGlc kinetics): amylopectin as primer.
Sequence of maize starch synthase SSIIa-2, N-terminally truncated SSIIa, first 176 amino acids deleted (493 amino acids), N-terminus GENVMNVI (SEQ ID NO:1) (A0A804PX87 entry or part of it, stated change not applied): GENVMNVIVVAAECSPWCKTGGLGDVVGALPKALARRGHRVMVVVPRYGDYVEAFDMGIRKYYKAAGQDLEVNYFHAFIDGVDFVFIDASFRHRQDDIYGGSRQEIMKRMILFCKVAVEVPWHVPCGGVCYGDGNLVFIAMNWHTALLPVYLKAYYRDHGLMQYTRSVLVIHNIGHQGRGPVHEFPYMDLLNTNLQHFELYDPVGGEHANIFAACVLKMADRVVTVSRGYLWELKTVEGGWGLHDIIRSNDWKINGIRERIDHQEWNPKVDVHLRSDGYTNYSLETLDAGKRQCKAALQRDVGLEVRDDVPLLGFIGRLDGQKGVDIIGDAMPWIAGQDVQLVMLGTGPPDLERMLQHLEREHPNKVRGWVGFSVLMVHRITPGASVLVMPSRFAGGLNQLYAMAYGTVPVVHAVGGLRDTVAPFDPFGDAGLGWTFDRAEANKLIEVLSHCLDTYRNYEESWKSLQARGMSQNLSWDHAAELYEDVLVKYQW
Text: as §1, §2
For the recombinant SS purification, the cell pellet was resuspended in sonication buffer (50 mM Tris-acetate, pH 7.5, 10 mM EDTA, and 5 mMDTT; 7 ml buffer per gram of cell mass), and cells were lysed using a Fisher 550 Sonic Dismembrator with 5×1 min. bursts with 30 sec. intervals. The homogenate was centrifuged at 9600 g for 30 minutes. SSI in the supernatant was then precipitated by slowly adding neutralized saturated ammonium sulfate to 40% saturation. After stirring on ice for an additional 50 minutes, proteins were collected by centrifugation at 12500 g for 45 minutes. The protein pellet was then redissolved in buffer A (50 mM Tris, pH 5.5, 1 mM EDTA, and 5 mM DTT) containing 0.1 M KCl and dialyzed against the same buffer, with one change of buffer. After dialysis, the sample was centrifuged at 13000 g for 20 minutes to remove insoluble materials. The resulting supernatant was loaded onto […] pre-equilibrated with dialysis buffer, and the flow through was collected. The column was washed with 10 column volumes of buffer a containing 0.1 M KCl, and then with buffer A containing 0.5 M KCl and 0.5 M maltose, collecting fractions during both washes. The active fractions were pooled and dialyzed overnight against buffer A, with one change of buffer. The next day, the amylase column sample was filtered and applied to a mono Q 5/5 FPLC column (Pharmacia). After washing with buffer A, a 20 ml 0-0,4 M KCl gradient was employed. The active fractions were electrophoresed on an 8% SDS-PAGE gel (31) to determine the purity of SSI in those fractions; the fractions which were apparently homogeneous were pooled and concentrated using a Centricon-30 spin column (Amicon).

Sequence of maize starch synthase SSIIa-1, putative full length SSIIa (669 amino acids), N-terminus AEAEAGGK (SEQ ID NO:68) (A0A804PX87 entry or part of it): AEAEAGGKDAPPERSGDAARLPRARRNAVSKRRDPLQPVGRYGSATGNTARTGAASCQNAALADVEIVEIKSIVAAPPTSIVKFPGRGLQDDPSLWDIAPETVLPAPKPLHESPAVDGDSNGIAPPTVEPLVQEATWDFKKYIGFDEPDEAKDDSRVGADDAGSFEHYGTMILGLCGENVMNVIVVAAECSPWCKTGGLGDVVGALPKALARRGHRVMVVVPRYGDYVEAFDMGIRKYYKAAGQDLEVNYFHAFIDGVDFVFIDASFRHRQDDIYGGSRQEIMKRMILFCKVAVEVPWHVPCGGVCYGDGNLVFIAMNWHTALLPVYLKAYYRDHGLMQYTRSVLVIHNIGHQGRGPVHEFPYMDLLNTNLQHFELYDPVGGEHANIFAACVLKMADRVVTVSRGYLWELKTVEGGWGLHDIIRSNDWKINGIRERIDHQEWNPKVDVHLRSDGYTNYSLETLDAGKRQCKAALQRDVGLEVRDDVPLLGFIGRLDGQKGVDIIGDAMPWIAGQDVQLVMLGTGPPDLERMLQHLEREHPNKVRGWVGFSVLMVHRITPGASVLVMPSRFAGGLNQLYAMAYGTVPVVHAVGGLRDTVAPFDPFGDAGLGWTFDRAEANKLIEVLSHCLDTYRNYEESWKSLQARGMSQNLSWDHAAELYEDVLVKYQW

As for `Nc1ncnc2c1ncn2[C@@H]1O[C@H](COP(=O)(O)OP(=O)(O)O[C@H]2O[C@H](CO)[C@@H](O)[C@H](O)[C@H]2O)[C@@H](O)[C@H]1O` [ADPGlc, adenosine diphosphate glucose], the “Vm (ADPGlc kinetics)” value is recorded as 18.0 ± 0.5 μmol/min/mg protein in test [1] (+citrate) and 6.38 ± 0.88 μmol/min/mg protein in test [1] (−citrate). Moreover, the “Vmax (ADPGlc kinetics)” value in test [2] (+citrate) was 23.0 ± 2.5 μmol/min/mg protein; in test [2] (−citrate), 12.1 ± 0.8 μmol/min/mg protein; in test [3] (+citrate, 27° C.), 4.83 ± 0.42 μmol/min/mg protein; in test [3] (+citrate, 37° C.), 11.4 ± 0.6 μmol/min/mg protein; in test [3] (−citrate, 27° C.), 4.87 ± 0.25 μmol/min/mg protein; in test [3] (−citrate, 37° C.), 7.86 ± 0.53 μmol/min/mg protein. Moreover, the “increase of Km of ADPGlc upon raising the assay temperature” value in test [2] (from 27° C. to 37° C.) was 2 fold. Also, in test [3] (all assay conditions used except glycogen primer at 27° C.), the “Km for ADPGlc compared with SSIIa-1” value is reported as “lower Km for ADPGlc”. The “effect of raising temperature on Km for ADPGlc” value in test [3] (from 27° C. to 37° C.) was “not affected by raising temperature”.
